Publication PMC8868518, “Exploring Titanium(IV) Complexes as Potential Antimicrobial Compounds” (Antibiotics, 2022)
Where two headings read alike, the source gives them in different places.

Experiments:
[1] = system: S. aureus MRSA (ATCC 43300); test: CO-ADD antibacterial assay, growth inhibition (OD600); format: cell-based, Staphylococcus aureus
Experimental: (§1) Dry compounds ranging from 1–2 mg were weighed into properly labeled Eppendorf tubes and sealed with parafilm. The compounds were used as received by the CO-ADD. For the screenings, most compounds were dissolved to a stock concentration of 10 mg/mL in DMSO. K2[Ti(Citrate)3], Na3Citrate, and K2[TiO(Oxalate)2] were dissolved in warm water. […] Samples were diluted in water to a final testing concentration of 32 µg/mL while keeping the final co-solvent concentration to a maximum of 0.5%. Where applicable, compounds were serially diluted 1:2 fold eight times. Each sample concentration was prepared in 384-well plates, non-binding surface plate (NBS; Corning 3640) for each bacterial/fungal strain, tissue-culture treated (TC-treated; Corning 3712/3764), black for mammalian cell types and polypropylene 384-well (PP; Corning 3657) for hemolysis assays, all in duplicate (n = 2), and keeping the final DMSO concentration to a maximum of 0.5%. All sample preparation was conducted using liquid handling robots.
(§2) For the bacterial assays, four Gram-negative bacteria (E. coli (ATCC 25922, Manassas, VA, USA); K. pneumoniae (ATCC 700603), A. baumannii; (ATCC 19606), and P. aeruginosa (ATCC 27853) and the Gram-positive bacteria (S. aureus MRSA (ATCC 43300) were used. Each strain was cultured in cation-adjusted Mueller Hinton broth (CAMHB; Bacto Laboratories 212322, Mount Pritchard, Australia) at 37 °C overnight. A sample of each culture was then diluted 40-fold in fresh CAMHB and incubated at 37 °C for 1.5–3 h. The resultant mid-log phase cultures were diluted with CAMHB (CFU/mL measured by OD600), then added to each well of the compound-containing plates (384-well non-binding surface (NBS) plates; Corning CLS3640, Millipore Sigma, Burlington, MA, USA), giving a cell density of 5 × 10^5 CFU/mL and a total volume of 50 µL. Plates were covered and incubated at 37 °C for 18 h without shaking. Inhibition of bacterial growth was determined by measuring absorbance at 600 nm (OD600) with a Tecan M1000 Pro monochromator plate reader, using media-only as negative control and bacteria without inhibitors as a positive control. […] Colistin sulfate (Sigma C4461) and vancomycin HCl (Sigma 861987) were used as internal controls on each plate for Gram-negative and Gram-positive bacteria, respectively.

[2] = system: A. baumannii (ATCC 19606); test: as above; format: cell-based, Acinetobacter baumannii; conditions: up to 32 μg/mL
Experimental: as §1, §2

[3] = system: E. coli (ATCC 25922); test: as above; format: cell-based, Escherichia coli; conditions: up to 32 μg/mL
Experimental: as §1, §2

[4] = system: K. pneumoniae (ATCC 700603); test: as above; format: cell-based, Klebsiella pneumoniae; conditions: up to 32 μg/mL
Experimental: as §1, §2

[5] = system: P. aeruginosa (ATCC 27853); test: as above; format: cell-based, Pseudomonas aeruginosa; conditions: up to 32 μg/mL
Experimental: as §1, §2

[6] = system: C. albicans (ATCC 90028); test: CO-ADD antifungal assay, growth inhibition (OD630); format: cell-based, Candida albicans; conditions: up to 32 μg/mL
Experimental: (§3) The compounds were used as received by the CO-ADD. For the screenings, most compounds were dissolved to a stock concentration of 10 mg/mL in DMSO. K2[Ti(Citrate)3], Na3Citrate, and K2[TiO(Oxalate)2] were dissolved in warm water. [Cu(Deferasirox)(H2O)]2 was dissolved in pyridine after its solubility was determined to be excellent in pyridine due to coordination of the solvent to the metal producing [Cu(Deferasirox)(pyridine)]2 in situ. […] Each sample concentration was prepared in 384-well plates, non-binding surface plate (NBS; Corning 3640) for each bacterial/fungal strain, tissue-culture treated (TC-treated; Corning 3712/3764), black for mammalian cell types and polypropylene 384-well (PP; […] All sample preparation was conducted using liquid handling robots. For the fungal assays, the fungi (C. albicans (ATCC 90028) and C. neoformans) (ATCC 208821) were used. Both fungi (yeast) strains were cultured for 3 days on Yeast Extract-Peptone Dextrose (YPD; Becton Dickinson 242720, Thermo Fisher Scientific, Waltham, MA, USA) agar at 30 °C. A yeast suspension of 1 × 10^6 to 5 × 10^6 CFU/mL (as determined by OD530) was prepared from five colonies from the agar plates, subsequently diluted with Yeast Nitrogen Base media (YNB; Becton Dickinson 233520, Thermo Fisher Scientific, Waltham, MA, USA), and added to each well of the compound-containing plates (384-well plates, NBS; Corning CLS3640) giving a final cell density of 2.5 × 10^3 CFU/mL and a total volume of 50 μL. Plates were covered and incubated at 35 °C for 36 h without shaking. […] Sigma R7017) and incubation at 35 °C for 2 h, using media-only as a negative control and fungi without inhibitors as a positive control. […] Fluconazole (Sigma F8929) was used as an internal control on each plate for both strains.

[7] = system: C. neoformans (ATCC 208821); test: CO-ADD antifungal assay, growth inhibition (resazurin, OD600-570); format: cell-based, Cryptococcus neoformans; conditions: up to 32 μg/mL
Experimental: as §3

[8] = system: MRC-5 cells; conditions: cited from earlier work
[9] = system: MRC-5 cells; test: MRC-5 cell viability, dose-response treatment, MTT assay; format: cell-based, human; conditions: MRC-5 cells, MTT, 72 h, pH 7.4, n = 6, this work
Experimental: A thawed stock of MRC-5 cells was washed with 1X PBS and resuspended in phenol red DMEM media (supplemented with 10% FBS and 1% of penicillin-streptomycin) and then seeded in a 100 mm × 20 mm (complete, O.D. x H) petri dish and grown in a 5% (v/v) CO2 humidified atmosphere at 37 °C. At least three passages were performed to ensure the integrity of the cells. After this point, cells were collected, thoroughly washed with 1X PBS, and then resuspended in phenol red-free DMEM (supplemented with 10% FBS, 1% Streptomycin/Penicillin, and 2.4 mM L-glutamine) at a 2.0 × 10^5 cells/mL concentration. Approximately 100 µL of the cell solution was seeded into wells of several 96-well plates to begin the MTT assay, which was performed in the 5% (v/v) CO2 humidified atmosphere at 37 °C. At least one lane of wells in each plate was supplied media without cells as a control. […] Most of the compounds were dissolved in 1X PBS buffer at pH 7.4. […] Titanocene dichloride was prepared as a fresh stock solution in DMSO and then diluted in 0.1 M NaCl (aq) instead of 1X PBS (to minimize hydrolysis induced precipitation) to the desired concentration while maintaining a constant 1% (v/v) DMSO background (0.5% DMSO after mixing with the well media). A control of cells treated with media containing 1% (v/v) DMSO was included in the study. The titanocene solutions were used within an hour of preparation in the final cell solution. […] At 3 h before a total of 72 h of incubation with the compounds, the cells were treated with 25 µL of 9 mg/mL MTT prepared in 1X PBS and sterile-filtered. Upon completion of the three hours, 50 µL of 10% (w/v) SDS (prepared in 0.1 M Tris buffer at pH 11) was added to solubilize the purple formazan product crystals and left overnight in the incubator. Control wells in the plates consisted of: (1) Untreated cells + MTT as the measure of 100% viable cell growth in the media and (2) Media with no cells + MTT as the measure of zero cells in the media. Two sets of compounds could be tested per plate. The plates were read at the wavelength of 570 nm (absorbance of the formazan product at pH 10.0) and 800 nm (background control) using a Tecan plate reader. The absorbance of all wells was compared to the absorbance of the untreated cells with the MTT set as the 100% viable cell standard and the absorbance of the zero cell control set as the 0% viable cell standard. […] Nonlinear regression in Origin 8.5 was utilized to fit the growth curves using the pharmacology dose–response equation to determine the half-maximal inhibitory concentration (IC50) and the corresponding standard deviation. All samples were tested six times.

[10] = predicted or measured MIC, ≥75% growth inhibition
[11] = predicted or measured MIC, ≥75% growth inhibition, 36 h

Oc1ccccc1-c1n[nH]c(-c2ccccc2O)n1 [Compound 3, 2-[3-(2-Hydroxyphenyl)-1H-1,2,4-triazol-5-yl]phenol, reference compound]
activity against MRSA (in words) ([1]; CO-ADD screen, 32 μg/mL): inactive
MIC ([1]; Staphylococcus aureus, predicted or measured MIC, lowest concentration with ≥75% growth inhibition, 0.25-32 μg/mL, 18 h): > 32 µg/mL
Dmax ([1]; Staphylococcus aureus, up to 32 μg/mL, read-out: Dmax S. aureus (MRSA), maximum % inhibition): -2.34%
MIC ([2]; Acinetobacter baumannii, ATCC19606, predicted or measured MIC, ≥75% growth inhibition): > 32 µg/mL
Dmax ([2]; Acinetobacter baumannii, ATCC19606, read-out: Dmax A. baumannii, maximum % inhibition): -1.93%
MIC ([3]; Escherichia coli, ATCC25922, predicted or measured MIC, ≥75% growth inhibition): > 32 µg/mL
Dmax ([3]; Escherichia coli, ATCC25922, read-out: Dmax E. coli, maximum % inhibition): -9.07%
MIC ([4]; Klebsiella pneumoniae, ATCC700603, predicted or measured MIC, ≥75% growth inhibition): > 32 µg/mL
Dmax ([4]; Klebsiella pneumoniae, ATCC700603, read-out: Dmax K. pneumoniae, maximum % inhibition): 4.11%
MIC ([5]; Pseudomonas aeruginosa, ATCC27853, predicted or measured MIC, ≥75% growth inhibition): > 32 µg/mL
Dmax ([5]; Pseudomonas aeruginosa, ATCC27853, read-out: Dmax P. aeruginosa, maximum % inhibition): 10%
MIC ([6]; Candida albicans, ATCC90028, predicted or measured MIC, ≥75% growth inhibition, 36 h): > 32 µg/mL
Dmax ([6]; Candida albicans, ATCC90028, read-out: Dmax C. albicans, maximum % inhibition): 6.23%
MIC ([7]; Cryptococcus neoformans, ATCC208821, predicted or measured MIC, ≥75% growth inhibition, 36 h): > 32 µg/mL
Dmax ([7]; Cryptococcus neoformans, ATCC208821, read-out: Dmax C. neoformans, maximum % inhibition): -7.23%
IC50 ± SD (µg/mL) [8]: >>25.3 µg/mL
IC50 ([8]; read-out: IC50 ± SD): > 100 µM

K2[Ti(Citrate)3] [Compound 7]
IC50 ± SD (µg/mL) [9]: >>73.2 µg/mL
IC50 ([9]; read-out: IC50 ± SD): > 100 µM
MIC S. aureus (MRSA) ([1]; predicted or measured MIC, lowest concentration with ≥75% growth inhibition, 0.25-32 μg/mL, 18 h): >32 µg/mL
Dmax S. aureus (MRSA), maximum % inhibition ([1]; up to 32 μg/mL): 38.01%
MIC A. baumannii [2, 10]: >32 µg/mL
Dmax A. baumannii, maximum % inhibition [2]: 17.94%
MIC E. coli [3, 10]: >32 µg/mL
Dmax E. coli, maximum % inhibition [3]: 10.41%
MIC K. pneumoniae [4, 10]: >32 µg/mL
Dmax K. pneumoniae, maximum % inhibition [4]: 15.43%
MIC P. aeruginosa [5, 10]: >32 µg/mL
Dmax P. aeruginosa, maximum % inhibition [5]: 7.99%
MIC C. albicans [6, 11]: >32 µg/mL
Dmax C. albicans, maximum % inhibition [6]: 44.53%
MIC C. neoformans [7, 11]: >32 µg/mL
Dmax C. neoformans, maximum % inhibition [7]: −7.88%
